# Measured values published in patent publication US9770451B2, “Composition including ATM inhibitor for reducing cellular senescence and use of the composition” (Samsung Electronics Co., Ltd., priority 2014, dated 2017).
# Test system: progeria senescent fibroblasts (passage 17)
# Assay: DNA comet assay
# Format: cell-based, human
# Conditions: CP-466722 0.1 μM, 4 weeks
# Description: To determine the extent of recovery of the senescent cells to the DNA damage in accordance with the ATM-kinase inhibitor, the DNA comet assay (Trevigen, 4250-050-K) was carried out according to the protocol of the manufacturer. The principle of the DNA comet assay is based on gel electrophoresis. The damaged DNA moves farther away in the electrophoresis process than the undamaged DNA, resulting in the formation of a comet-tail shape. Afterwards, a slide used herein was stained with cyber green (SYBR Green), so that the tail length of the DNA fragment was measured by using fluorescence microscopy to confirm the extent of the DNA damage. The extent of the DNA damage may be measured as a tail moment value obtained by multiplying tail DNA % by the distance of migration of DNA fragmentation from the nucleus or the tail length. […]
# To determine the extent of recovery of the senescent cells to the DNA damage in accordance with the ATM-kinase inhibitor, the DNA comet assay (Trevigen, 4250-050-K) was carried out according to the protocol of the manufacturer. […] Afterwards, a slide used herein was stained with cyber green (SYBR Green), so that the tail length of the DAN fragment was measured by using fluorescence microscopy to confirm the extent of the DNA damage. […]
smiles,measurement,value
"COc1cc2ncnc(-n3nc(-c4ccccn4)nc3N)c2cc1OC [CP-466722, 2-(6,7-dimethoxyquinazolin-4-yl)-5-(pyridin-2-yl)-2H-1,2,4-triazol-3-amine]",DNA damage (tail moment) vs DMSO control,significantly decreased
